Measurements taken from patent US20240425523A1, “Compounds for the Degradation of EGFR Kinase” (Beigene Switzerland GMBH, priority 2023, published 2024).

Columns and labels:
Assay type in all cases: cell-based
[1] = target: T1, p-EGFR L858R (BaF3-L858R cells) (Homo sapiens, UniProt P00533, L858R); experiment: Cell p-EGFR inhibition assay, HTRF, BaF3-L858R cells; details: 16 h treatment; for Imax (%): maximum percentage of pEGFR inhibition; for IC50: pEGFR inhibition
T1 construct: host or cells: BaF3
Protocol: BaF3-L858R (abbv. L858R) cell were purchased from Kangyuan Bochuang Biotechnology (Beijing) Co., Ltd.
(§1) H1975-#23 and BaF3-L858R cells are treated with compounds diluted in 0.1% DMSO cell culture medium on day 2, incubate for 16 h, 37° C., 5% CO2. the final concentration of compounds in all assay is start with 10 uM, 5-fold dilution, total 8 doses were included.
(§2) After 16 h treatment, for H1975-#23 cells, add 50 ul HTRF 1× lysis buffer to each well; for BaF3-L858R cells, add 20 μl 4× lysis buffer to each well; seal the plate and incubate 1 hour at room temperature on a plate shaker; Once the cells are lysed, 16 μL of cell lysate are transferred to a PE 384-well HTRF detection plate; 4 μL of pre-mixed HTRF antibodies are added to each well; Cover the plate with a plate sealer, spin 1000 rpm for 1 min, Incubate overnight at room temperature; Read on BMG PheraStar with HTRF protocol (337 nm-665 nm-620 nm).
(§3) High control=Cell group with added DMSO and without compound, indicating microplate readings without p-EGFR inhibited.
(§4) Imax is the maximum percentage of inhibition.
(§5) The IC50 value of a compound can be obtained by fitting the following equation.
(§6) Wherein, X and Y are known values, and IC50, Hillslope, Top and Bottom are the parameters obtained by fitting with software. […] The experimental data were fitted by calculating and analyzing with Dotmatics data analysis software.

[2] = target: T2, EGFR L858R (BaF3-L858R cells) (Homo sapiens, UniProt P00533, L858R); experiment: Cell degradation of EGFR, HTRF assay, BaF3-L858R cells; details: 16 h treatment; for DC50: EGFR degradation; for Dmax: maximum percentage of degradation
T2 construct: host or cells: BaF3
In short: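 EGFR L858R levels measured by HTRF antibody pair in lysed BaF3-L858R cells after 16 h compound exposure (8-point 5-fold series from 10 uM final, 37° C). Degradation is relative to DMSO-only cells; DC50 fitted with Hill equation, Dmax taken as the largest percent loss.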

[3] = target: p-EGFR Del19/C797S (H1975-clone #23 cells) (Homo sapiens, UniProt P00533); experiment: Cell p-EGFR inhibition assay, HTRF, H1975-clone#23 (DEL19/C797S) cells; details: 16 h treatment; for Imax (%): maximum percentage of pEGFR inhibition; for IC50: pEGFR inhibition
Protocol: The EGFR over-expressed cells then underwent knockout, in which the EGFR targeting sgRNA was designed to only target the endogenous EGFR copies and preserve the exogenous EGFR copies. Followed by the knockout, the edited H1975 cells were seeded in 96 well plates at the concentration of 1 cell/well, cultured for about 2 weeks to allow single clones formation. The formed clones were screened by DNA sequencing and whole exon sequencing analysis for the desired edition.
as §1, §2, §3, §4, §5, §6

[4] = target: T3, EGFR-L858R/C797S (H1975-clone #8 cells) (Homo sapiens, UniProt P00533, C797S/L858R); experiment: Cell degradation of EGFR, HTRF assay, H1975-clone#8 (L858R/C797S) cells; details: 16 h treatment; for DC50: EGFR degradation; for Dmax: maximum percentage of degradation
T3 construct: expressed in transfected cells; host or cells: H1975 (endogenous EGFR knocked out, clone #8)

COC[C@@H]1CN(c2ccc3c(c2)N2CC4CC[C@H](COc5c(c(C(F)(F)F)nn5C)-c5cc(cc(C)n5)C(=O)/N=C/2N3)C4)CCN1C1CCN(c2cc(F)c([C@H]3CCC(=O)NC3=O)c(F)c2)CC1 [Example 77, (R)-3-(4-(4-((S)-4-((7^1R,7^3S,E)-1^1,2^6-dimethyl-3-oxo-1^3-(trifluoromethyl)-5^2,5^3-dihydro-1^1H,5^1H-9-oxa-4-aza-5(2,1)-benzo[d]imidazola-2(2,4)-pyridina-1(4,5)-pyrazola-7(1,3)-cyclopentanacyclononaphane-5^6-yl)-2-(methoxymethyl)piperazin-1-yl)piperidin-1-yl)-2,6-difluorophenyl)piperidine-2,6-dione]
Imax (%) [1]: 91.3%
IC50 [1]: 10.9 nM
DC50 [2]: 3.4 nM
Dmax [2]: 89.5%
Imax (%) [3]: 99.2%
IC50 [3]: 9.5 nM
DC50 [4]: 5.5 nM
Dmax [4]: 85.7%

Cc1cc2cc(n1)-c1cnn(C)c1OC[C@H]1CCC(C1)CN1/C(=N/C2=O)Nc2ccc(N3CCN(CCc4cc(F)c(C5CCC(=O)NC5=O)nc4C)CC3)cc21 (stereo partly drawn) [Example 78, 3-(5-(2-(4-((7^1R,7^3S,E)-1^1,2^6-dimethyl-3-oxo-5^2,5^3-dihydro-1^1H,5^1H-9-oxa-4-aza-5(2,1)-benzo[d]imidazola-2(2,4)-pyridina-1(4,5)-pyrazola-7(1,3)-cyclopentanacyclononaphane-5^6-yl)piperazin-1-yl)ethyl)-3-fluoro-6-methylpyridin-2-yl)piperidine-2,6-dione]
Imax (%) [1]: 92.5%
IC50 [1]: 16.9 nM
DC50 [2]: 3.68 nM
Dmax [2]: 87.8%
Imax (%) [3]: 100.6%
IC50 [3]: 1.2 nM
DC50 [4]: 4.18 nM
Dmax [4]: 65.5%

Cc1cc2cc(n1)-c1c(C)nn(C)c1OC[C@H]1CCC(C1)CN1/C(=N/C2=O)Nc2ccc(N3CCN([C@@H]4CCN(c5ccc(C6CCC(=O)NC6=O)nc5C)C[C@@H]4F)CC3)cc21 (stereo partly drawn) [Example 79, 3-(5-((3S,4R)-3-fluoro-4-(4-((7^1R,7^3S,E)-1^1,1^3,2^6-trimethyl-3-oxo-5^2,5^3-dihydro-1^1H,5^1H-9-oxa-4-aza-5(2,1)-benzo[d]imidazola-2(2,4)-pyridina-1(4,5)-pyrazola-7(1,3)-cyclopentanacyclononaphane-5^6-yl)piperazin-1-yl)piperidin-1-yl)-6-methylpyridin-2-yl)piperidine-2,6-dione]
Imax (%) [1]: 92.7%
IC50 [1]: 1.1 nM
DC50 [2]: 0.41 nM
Dmax [2]: 92.6%
Imax (%) [3]: 101.4%
IC50 [3]: 0.3 nM
DC50 [4]: 0.48 nM
Dmax [4]: 91.7%

COC[C@@H]1CN(c2ccc3c(c2)N2CC4CC[C@H](COc5c(c(C)nn5C)-c5cc(cc(C)n5)C(=O)/N=C/2N3)C4)CCN1C1CCN(c2cc(F)c([C@H]3CCC(=O)NC3=O)c(F)c2)CC1 [Example 80, (R)-3-(2,6-difluoro-4-(4-((S)-2-(methoxymethyl)-4-((7R,7^3S,E)-1^1,1^3,2^6-trimethyl-3-oxo-5^2,5^3-dihydro-1^1H,5^1H-9-oxa-4-aza-5(2,1)-benzo[d]imidazola-2(2,4)-pyridina-1(4,5)-pyrazola-7(1,3)-cyclopentanacyclononaphane-5^6-yl)piperazin-1-yl)piperidin-1-yl)phenyl)piperidine-2,6-dione]
Imax (%) [1]: 91.7%
IC50 [1]: 3.8 nM
DC50 [2]: 1.73 nM
Dmax [2]: 88.1%
Imax (%) [3]: 99.9%
IC50 [3]: 1.6 nM
DC50 [4]: 5.24 nM
Dmax [4]: 82.4%

Cc1cc2cc(n1)-c1c(C)nn(C)c1OC[C@H]1CCC(C1)CN1/C(=N/C2=O)Nc2ccc(N3CCN([C@@H]4CCN(c5cc(F)c(C6CCC(=O)NC6=O)nc5C)C[C@@H]4F)CC3)cc21 (stereo partly drawn) [Example 82, 3-(3-fluoro-5-((3S,4R)-3-fluoro-4-(4-((7^1R,7^3S,E)-1^1,1^3,2^6-trimethyl-3-oxo-5^2,5^3-dihydro-1^1H,5^1H-9-oxa-4-aza-5(2,1)-benzo[d]imidazola-2(2,4)-pyridina-1(4,5)-pyrazola-7(1,3)-cyclopentanacyclononaphane-5^6-yl)piperazin-1-yl)piperidin-1-yl)-6-methylpyridin-2-yl)piperidine-2,6-dione]
Imax (%) [1]: 91.9%
IC50 [1]: 3.1 nM
DC50 [2]: 0.31 nM
Dmax [2]: 74.1%
Imax (%) [3]: 101.1%
IC50 [3]: 1.1 nM
DC50 [4]: 0.8 nM
Dmax [4]: 89.2%

Cc1cc2cc(n1)-c1cnn(C)c1OC[C@H]1CCC(C1)CN1/C(=N/C2=O)Nc2ccc(N3CCN([C@H]4CCN(c5ccc(C6CCC(=O)NC6=O)nc5C)CC4(F)F)CC3)cc21 (stereo partly drawn) [Example 83, 3-(5-((S)-4-(4-((7^1R,7^3S,E)-1^1,2^6-dimethyl-3-oxo-5^2,5^3-dihydro-1^1H,5^1H-9-oxa-4-aza-5(2,1)-benzo[d]imidazola-2(2,4)-pyridina-1(4,5)-pyrazola-7(1,3)-cyclopentanacyclononaphane-5^6-yl)piperazin-1-yl)-3,3-difluoropiperidin-1-yl)-6-methylpyridin-2-yl)piperidine-2,6-dione]
Imax (%) [1]: 96.5%
IC50 [1]: 18 nM
DC50 [2]: 4.08 nM
Dmax [2]: 69.1%
Imax (%) [3]: 100.7%
IC50 [3]: 1 nM
DC50 [4]: 5.64 nM
Dmax [4]: 81.8%

COC[C@@H]1CN(c2ccc3c(c2)N2CC4CC[C@H](COc5c(c(C(F)F)nn5C)-c5cc(cc(C)n5)C(=O)/N=C/2N3)C4)CCN1C1CCN(c2cc(F)c([C@H]3CCC(=O)NC3=O)c(F)c2)CC1 [Example 85, (R)-3-(4-(4-((S)-4-((7^1R,7^3S,E)-1^3-(difluoromethyl)-1^1,2^6-dimethyl-3-oxo-5^2,5^3-dihydro-1^1H,5^1H-9-oxa-4-aza-5(2,1)-benzo[d]imidazola-2(2,4)-pyridina-1(4,5)-pyrazola-7(1,3)-cyclopentanacyclononaphane-5^6-yl)-2-(methoxymethyl)piperazin-1-yl)piperidin-1-yl)-2,6-difluorophenyl)piperidine-2,6-dione]
Imax (%) [1]: 97.5%
IC50 [1]: 11.6 nM
DC50 [2]: 4.23 nM
Dmax [2]: 78%
Imax (%) [3]: 99.7%
IC50 [3]: 3.1 nM
DC50 [4]: 4.91 nM
Dmax [4]: 83%

COC[C@@H]1CN(c2ccc3c(c2)N2CC4CC[C@H](COc5c(cnn5C)-c5cc(cc(C)n5)C(=O)/N=C/2N3)C4)CCN1CC1CN(c2cc(F)c([C@H]3CCC(=O)NC3=O)c(F)c2)C1 [Example 86, (R)-3-(4-(3-(((S)-4-((7^1R,7^3S,E)-1^1,2^6-dimethyl-3-oxo-5^2,5^3-dihydro-1^1H,5^1H-9-oxa-4-aza-5(2,1)-benzo[d]imidazola-2(2,4)-pyridina-1(4,5)-pyrazola-7(1,3)-cyclopentanacyclononaphane-5^6-yl)-2-(methoxymethyl)piperazin-1-yl)methyl)azetidin-1-yl)-2,6-difluorophenyl)piperidine-2,6-dione]
Imax (%) [1]: 97.1%
IC50 [1]: 17.2 nM
DC50 [2]: 2.74 nM
Dmax [2]: 70.3%
Imax (%) [3]: 100.2%
IC50 [3]: 3 nM
DC50 [4]: 3.22 nM
Dmax [4]: 66%

COC[C@@H]1CN(c2cc3c(cc2F)N/C2=N\C(=O)c4cc(C)nc(c4)-c4cnn(C)c4OC[C@H]4CCC(C4)CN23)CCN1C1CCN(c2cc(F)c([C@H]3CCC(=O)NC3=O)c(F)c2)CC1 [Example 87, (R)-3-(2,6-difluoro-4-(4-((S)-4-((7^1R,7^3S,E)-5^5-fluoro-1^1,2^6-dimethyl-3-oxo-5^2,5^3-dihydro-1^1H,5^1H-9-oxa-4-aza-5(2,1)-benzo[d]imidazola-2(2,4)-pyridina-1(4,5)-pyrazola-7(1,3)-cyclopentanacyclononaphane-5^6-yl)-2-(methoxymethyl)piperazin-1-yl)piperidin-1-yl)phenyl)piperidine-2,6-dione]
Imax (%) [1]: 96.2%
IC50 [1]: 13.8 nM
DC50 [2]: 2.86 nM
Dmax [2]: 64.1%
Imax (%) [3]: 100.3%
IC50 [3]: 1.5 nM
DC50 [4]: 8.71 nM
Dmax [4]: 70.8%
